In ChEMBL document CHEMBL1159247, “Isolation of Novel Beauvericin Analogues from the Fungus Beauveria bassiana” (1995):
≈ marks a conversion by molar mass, not a printed value.

Test system: Aedes aegypti
Test: Insecticidal in Aedes aegypti fourth instar mosquito larvae after 24 hrs
Type: functional

Row | Compound | LC50 [µg/mL]
1 | CC[C@H](C)[C@H]1OC(=O)[C@H](Cc2ccccc2)N(C)C(=O)[C@@H](C(C)C)OC(=O)[C@H](Cc2ccccc2)N(C)C(=O)[C@@H](C(C)C)OC(=O)[C@H](Cc2ccccc2)N(C)C1=O [BEAUVERICIN A] | 31 (≈ 38.8 µM)
2 | CC(C)[C@@H]1OC(=O)[C@@H](Cc2ccccc2)N(C)C(=O)[C@H](C(C)C)OC(=O)[C@@H](Cc2ccccc2)N(C)C(=O)[C@H](C(C)C)OC(=O)[C@@H](Cc2ccccc2)N(C)C1=O [BEAUVERICIN] | 26 (≈ 33.2 µM)
